“And” between values parts separate entries of the source, which are not always exact repeats. Equal entries are not always repeated. Inconclusive results and toxic doses are left out.
Test system: CD2F1 mice, L1210 leukemia ip, survival T/C
Assay: NCI In Vivo Anticancer Drug Screen. Data for tumor model L1210 Leukemia (intraperitoneal) in CD2F1 (CDF1) mice
Conditions: higher = longer survival
In short: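 Antitumor effect is scored in animals hosting a serially transplanted tumor. Values compare compound-dosed animals against vehicle-only controls as a simple quotient.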

[1] = endpoint: mean survival time, dose: 100.0 mg/kg/injection, schedule: Q01DX009 (ip), vehicle: saline with Tween-80
[2] = endpoint: mean survival time, dose: 200.0 mg/kg/injection, schedule: Q01DX009 (ip), vehicle: saline with Tween-80
[3] = endpoint: mean survival time, dose: 200.0 mg/kg/injection, schedule: Q04DX003 (ip), vehicle: saline with Tween-80

Cn1c(=O)c2c(ncn2C(C=O)OC(C=O)CO)n(C)c1=O (stereo not drawn)
T/C (endpoint: mean survival time, dose: 12.5 mg/kg/injection, schedule: Q01DX005 (ip), vehicle: water): 101 % of control | T/C (endpoint: mean survival time, dose: 25.0 mg/kg/injection, schedule: Q01DX005 (ip), vehicle: water): 104 % of control | T/C (endpoint: mean survival time, dose: 50.0 mg/kg/injection, schedule: Q01DX005 (ip), vehicle: water): 110 % of control | T/C (endpoint: mean survival time, dose: 100.0 mg/kg/injection, schedule: Q01DX005 (ip), vehicle: water): 112 % of control

COc1ccc(Nc2ccc(C(=C3C=CC(=[N+](C)CCC#N)C=C3)c3ccc(N(C)CCC#N)cc3)cc2)cc1
T/C (endpoint: mean survival time, dose: 100.0 mg/kg/injection, schedule: Q04DX002 (ip), vehicle: saline with Tween-80): 90 % of control

CCN(CC)c1cc(C(=O)O)cc(N(CC)CC)n1
T/C (endpoint: median survival time, dose: 6.25 mg/kg/injection, schedule: Q01DX009 (ip), vehicle: other): 104 % of control | T/C (endpoint: median survival time, dose: 12.5 mg/kg/injection, schedule: Q01DX009 (ip), vehicle: other): 107 % of control | T/C (endpoint: median survival time, dose: 50.0 mg/kg/injection, schedule: Q01DX005 (ip), vehicle: acid diluted with saline): 103 % of control | T/C (endpoint: median survival time, dose: 50.0 mg/kg/injection, schedule: Q01DX009 (ip), vehicle: other): 108 % of control | T/C (endpoint: median survival time, dose: 100.0 mg/kg/injection, schedule: Q01DX005 (ip), vehicle: acid diluted with saline): 94 % of control | T/C (endpoint: median survival time, dose: 100.0 mg/kg/injection, schedule: Q01DX009 (ip), vehicle: other): 121 % of control

COc1ccc2ccc[n+](C)c2c1
T/C (endpoint: mean survival time, dose: 6.25 mg/kg/injection, schedule: Q01DX009 (ip), vehicle: saline): 94 % of control | T/C (endpoint: mean survival time, dose: 6.25 mg/kg/injection, schedule: Q04DX003 (ip), vehicle: saline with Tween-80): 98 % of control | T/C (endpoint: mean survival time, dose: 12.5 mg/kg/injection, schedule: Q01DX009 (ip), vehicle: saline): 104 % of control | T/C (endpoint: mean survival time, dose: 12.5 mg/kg/injection, schedule: Q04DX003 (ip), vehicle: saline with Tween-80): 101 % of control | T/C (endpoint: mean survival time, dose: 25.0 mg/kg/injection, schedule: Q01DX009 (ip), vehicle: saline): 107 % of control | T/C (endpoint: mean survival time, dose: 25.0 mg/kg/injection, schedule: Q04DX003 (ip), vehicle: saline with Tween-80): 101 % of control

CCN(C)N=Nc1ccc(NC(N)=O)cc1
T/C (endpoint: mean survival time, dose: 4.68 mg/kg/injection, schedule: Q01DX009 (ip), vehicle: Klucel (hydroxypropylcellulose) (HPC)): 109 % of control and 112 % of control | T/C (endpoint: mean survival time, dose: 9.37 mg/kg/injection, schedule: Q01DX009 (ip), vehicle: Klucel (hydroxypropylcellulose) (HPC)): 119 % of control and 108 % of control | T/C (endpoint: mean survival time, dose: 18.75 mg/kg/injection, schedule: Q01DX009 (ip), vehicle: Klucel (hydroxypropylcellulose) (HPC)): 124 % of control | T/C (endpoint: mean survival time, dose: 37.5 mg/kg/injection, schedule: Q01DX009 (ip), vehicle: Klucel (hydroxypropylcellulose) (HPC)): 152 % of control

CO[C@H]1/C=C/O[C@@]2(C)Oc3c(C)c(O)c4c(O)c(c(/C=N/N5C(C)CN(Cc6ccccc6)CC5C)c(O)c4c3C2=O)NC(=O)/C(C)=C\C=C\[C@H](C)[C@H](O)[C@@H](C)[C@@H](O)[C@@H](C)[C@H](OC(C)=O)[C@@H]1C (stereo partly drawn)
T/C (endpoint: mean survival time, dose: 50.0 mg/kg/injection, schedule: Q01DX009 (ip), vehicle: saline with Tween-80): 96 % of control | T/C [1]: 100 % of control | T/C [2]: 96 % of control | T/C [3]: 90 % of control

O=C(Nc1cccnc1)c1cccc([N+](=O)[O-])c1
T/C (endpoint: mean survival time, dose: 25.0 mg/kg/injection, schedule: Q01DX009 (ip), vehicle: Klucel (hydroxypropylcellulose) (HPC)): 108 % of control | T/C (endpoint: mean survival time, dose: 25.0 mg/kg/injection, schedule: Q04DX002 (ip), vehicle: Klucel (hydroxypropylcellulose) (HPC)): 97 % of control | T/C (endpoint: mean survival time, dose: 50.0 mg/kg/injection, schedule: Q01DX009 (ip), vehicle: Klucel (hydroxypropylcellulose) (HPC)): 110 % of control | T/C (endpoint: mean survival time, dose: 50.0 mg/kg/injection, schedule: Q04DX002 (ip), vehicle: Klucel (hydroxypropylcellulose) (HPC)): 102 % of control | T/C (endpoint: mean survival time, dose: 100.0 mg/kg/injection, schedule: Q01DX009 (ip), vehicle: Klucel (hydroxypropylcellulose) (HPC)): 93 % of control | T/C (endpoint: mean survival time, dose: 100.0 mg/kg/injection, schedule: Q04DX002 (ip), vehicle: Klucel (hydroxypropylcellulose) (HPC)): 97 % of control | T/C (endpoint: mean survival time, dose: 200.0 mg/kg/injection, schedule: Q01DX009 (ip), vehicle: Klucel (hydroxypropylcellulose) (HPC)): 92 % of control | T/C (endpoint: mean survival time, dose: 200.0 mg/kg/injection, schedule: Q04DX002 (ip), vehicle: Klucel (hydroxypropylcellulose) (HPC)): 96 % of control

CC1(C)OC2C(/C=C\C(=O)c3ccccc3)OC(n3ccc(=O)[nH]c3=O)C2O1 (stereo not drawn)
T/C (endpoint: mean survival time, dose: 12.5 mg/kg/injection, schedule: Q01DX005 (ip), vehicle: distilled water + Tween-80): 102 % of control | T/C (endpoint: mean survival time, dose: 25.0 mg/kg/injection, schedule: Q01DX005 (ip), vehicle: distilled water + Tween-80): 100 % of control | T/C (endpoint: mean survival time, dose: 50.0 mg/kg/injection, schedule: Q01DX005 (ip), vehicle: distilled water + Tween-80): 96 % of control | T/C (endpoint: mean survival time, dose: 100.0 mg/kg/injection, schedule: Q01DX005 (ip), vehicle: distilled water + Tween-80): 103 % of control

Cc1c(Cl)cccc1NC(=O)Nc1cccc2ccccc12
T/C [1]: 113 % of control | T/C (endpoint: mean survival time, dose: 100.0 mg/kg/injection, schedule: Q04DX003 (ip), vehicle: saline with Tween-80): 93 % of control | T/C [2]: 102 % of control | T/C [3]: 102 % of control | T/C (endpoint: mean survival time, dose: 400.0 mg/kg/injection, schedule: Q01DX009 (ip), vehicle: saline with Tween-80): 96 % of control | T/C (endpoint: mean survival time, dose: 400.0 mg/kg/injection, schedule: Q04DX003 (ip), vehicle: saline with Tween-80): 100 % of control
